In paper PMC3566180, “Glucose 6P Binds and Activates HlyIIR to Repress Bacillus cereus Haemolysin hlyII Gene Expression” (PLoS ONE, 2013):
pKd: −log10 of the molar value.

How the values were obtained:
[1] = target: T1, HlyIIR (Bacillus thuringiensis, UniProt A0A1W6WQG6); experiment: isothermal titration calorimetry (ITC200, […]°C, […] purified HlyIIR, N = […]); format: binding
T1 construct: gene CAB88_17715; hlyIIR gene amplified from the Bt407 chromosome, GST-tagged (pGEX6P1), tag removed with Precission protease

[2] = tested on: HlyIIR (Bacillus cereus Bt407); experiment: ITC; settings: ITC200, 20 C, protein storage buffer (composition and pH not given), 28 uM HlyIIR in cell, 1.25 uM DNA injected (20 x 2 ul)

T1 sequence (A0A1W6WQG6 entry or part of it): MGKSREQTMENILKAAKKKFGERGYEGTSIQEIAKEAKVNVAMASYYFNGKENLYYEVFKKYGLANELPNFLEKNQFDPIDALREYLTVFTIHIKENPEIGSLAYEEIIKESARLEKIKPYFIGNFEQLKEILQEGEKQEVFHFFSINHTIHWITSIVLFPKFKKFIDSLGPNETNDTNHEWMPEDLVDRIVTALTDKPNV

Compound | pKd [1] | pKd [2]
O=P(O)(O)OC[C@H]1OC(O)[C@H](O)[C@@H](O)[C@@H]1O (some centres unmarked) [glucose 6P] | ~4.97 | 
hlyII promoter fragment (220 bp) |  | 6.96
